The source of these data is patent US10987360B2, “Hepatitis B core protein modulators” (Assembly Biosciences, Inc., priority 2016, dated 2021).

Where two headings read alike, the source gives them in different places.

One data set deals with AD38 cells. As to the kind of experiment: Viability of AD38 cells, Promega CellTiter-Glo. To be noted: 6 days incubation, controls being 100%; for AD38 Viability Normalized Result (CPAM/DMSO %) at 10 μM: Table 6, compounds of Group 4; for AD38 Viability Normalized Result (cmpd/DMSO %) at 10 μM: Table 4, compounds of Group 2. In kind it is cell-based. The method, then: (§1) Assay Measuring Activity of Compounds on Viral Production in and on Viability of AD38 Cells
(§2) AD38 cells grown in a 175 cm flask with “Growth Medium” (DMEM/F12 (1:1) (cat #SH30023.01, Hyclone, 1×Pen/step (cat #: 30-002-CL, Mediatech, Inc), 10% FBS (cat #: 101, Tissue Culture Biologics), 250 μg/mL G418 (cat #: 30-234-CR, Mediatech, Inc), 1 μg/mL Tetracycline (cat #: T3325, Teknova)) were detached with 0.25% trypsin. Tetracycline-free “treatment medium” (15 mL DMEM/F12 (1:1) (cat #SH30023.01, Hyclone, 1×Pen/step (cat #: 30-002-CL, Mediatech, Inc), with 2% FBS, Tet-system approved (cat #: 631106, Clontech) were then added to mix and spun at 1300 rpm for 5 min. Pelleted cells were then re-suspended/washed with 50 mL of 1×PBS 2 times and 10 mL Treatment Medium one time. AD38 cells were then re-suspended with 10 mL of Treatment Medium and counted. Wells of a collagen coated 96-well NUNC microtiter plate were seeded at 50,000/well in 180 μL of Treatment Medium, and 20 μL of in treatment media with either 10% DMSO (Control) or a 10× solution of compound in 10% DMSO was added. Plates were incubated for 6 days at 37° C.
At the end of compound treatment period cell viability was assessed using a Promega CellTiter-Glo protocol. All supernatant was removed the previously treated 96-well microtiter plate, and 50 μL Tetracycline-free treatment medium (DMEM/F12 (1:1), 1×Pen/step (cat #: 30-002-CL, Mediatech, Inc), with 2% FBS, Tet-system approved (cat #: 631106, Clontech), and 1% DMSO was added back to each well. Another 50 μL of CellTiter-Glo reagent solution (Promega, G7573) was then added at room temperature and the contents mixed for 2 minutes on an orbital shaker to induce cell lysis. This was followed by incubation at room temperature for 10 minutes to stabilize the luminescent signal. The luminescence was recorded for 0.2 seconds per well on a Tecan multimode platereader (Infinite M1000 pro). The luminescent signal from each well was normalized against that of untreated (DMSO) control wells. All results in Tables 3-6 were reported with percent viability (with controls being 100%).

In data set [1] the test system is HBV viral load in AD38 cells. Kind of data set: Viral load production in AD38 cells, quantitative PCR of the core sequence in supernatant. The format is cell-based. The following applies: Hepatitis B virus, 144 h, 6 days incubation. The method, then:
as §1, §2
Viral load production was assayed by quantitative PCR of the core sequence. Briefly, 5 μL of clarified supernatant was added to a PCR reaction mixture that contained forward primers HBV-f 5′-CTGTGCCTTGGGTGGCTTT-3′, Reverse primers HBV-r 5′-[…]-3′ and Fluorescent TaqMan™ Probes HBV-probe 5′-FAM/AGCTCCAAA/ZEN/[…]/3IABkFQ-3′ in Quanta Biosciences PerfeCTa® qPCR Toughmix®, and was subsequently on an Applied Biosystems VIIA7 in a final volume of 20 μL. The PCR mixture was incubated at 45° C. for 5 minutes, then 95° C. for 10 min, followed by 40 cycles of 10 seconds at 95° C. and 20 seconds at 60° C. Viral load was quantitated against known standards by using ViiA™ 7 Software. Viral load in the supernatant from wells with treated cells were compared against viral load in supernatant from DMSO control wells (≥3 per plate).

[2] abbreviates: Table 6, compounds of Group 4, read-out: AD38 Viral Load (CpAM/DMSO %) at 10 μM.
Where [3] appears, read: Table 4, compounds of Group 2, read-out: AD38 Viral Load (%) (VL with cmpd/VL in DMSO control) at 10 μM.

As to `N#Cc1ccc(-c2ncc(CNC(=O)c3ccc4c(c3)NC(=O)C43CCCCC3)s2)c(F)c1` [Compound C6-02, N-((2-(4-Cyano-2-fluorophenyl)thiazol-5-yl)methyl)-2′-oxospiro[cyclohexane-1,3′-indoline]-6′-carboxamide], the “AD38 Viability Normalized Result (CPAM/DMSO %) at 10 μM” value in the data set on AD38 cells is 91%. The activity at 10 µM in data set [1] (setting [2]) amounted to 41.2%.

As to `CC1=C(C)S(=O)(=O)c2ccc(C(=O)NCc3cnc(C(F)(F)F)s3)cc2NC1=O` [Compound C10-01], the “AD38 Viability Normalized Result (cmpd/DMSO %) at 10 μM” value in the data set on AD38 cells was 101%. In addition, the activity at 10 µM in data set [1] (setting [3]) turned out to be 12.2%.

With `CC1=C(C)S(=O)(=O)c2ccc(C(=O)NCc3cnc(-c4ccc(C#N)cc4F)s3)cc2NC1=O` [Compound C10-02], in the data set on AD38 cells, the “AD38 Viability Normalized Result (cmpd/DMSO %) at 10 μM” value is 95%. Besides, the activity at 10 µM in data set [1] (setting [3]) was found to be 4%.

`CC1=C(C)S(=O)(=O)c2ccc(C(=O)NCc3cnc(-n4cccn4)s3)cc2NC1=O` [Compound C10-04]: the “AD38 Viability Normalized Result (cmpd/DMSO %) at 10 μM” value in the data set with AD38 cells is reported as 92%. In data set [1] (setting [3]), the activity at 10 µM stood at 1.8%.

Regarding `CC1=C(C)S(=O)(=O)c2ccc(C(=O)NCc3cnc(-c4ccc(OCCCN(C)C)cc4)s3)cc2NC1=O` [Compound C10-05], the “AD38 Viability Normalized Result (cmpd/DMSO %) at 10 μM” value in the data set on AD38 cells is reported as 90%. Also, the activity at 10 µM in data set [1] (setting [3]) was 11.3%.

For `CC1=C(C)C(=O)Nc2cc(C(=O)NCc3cnc(C(F)(F)F)s3)ccc2S1` [Compound C12-01, 2,3-Dimethyl-4-oxo-N-((2-(trifluoromethyl)thiazol-5-yl)methyl)-4,5-dihydrobenzo[b][1,4]thiazepine-7-carboxamide], in the data set with AD38 cells, the “AD38 Viability Normalized Result (cmpd/DMSO %) at 10 μM” value came to 97%. The activity at 10 µM in data set [1] (setting [3]) is 15.5%.

Regarding `CC1=C(C)C(=O)Nc2cc(C(=O)NCc3cnc(-c4ccc(C#N)cc4F)s3)ccc2S1` [Compound C12-02], in the data set on AD38 cells, the “AD38 Viability Normalized Result (cmpd/DMSO %) at 10 μM” value is listed as 99%. Moreover, the activity at 10 µM in data set [1] (setting [3]) turned out to be 21.4%.

Regarding `N#Cc1ccc(-c2ncc(CNC(=O)c3ccc4cc[nH]c4c3)s2)c(F)c1` [Compound C13-02, N-((2-(4-cyano-2-fluorophenyl)thiazol-5-yl)methyl)-1H-indole-6-carboxamide], the “AD38 Viability Normalized Result (CPAM/DMSO %) at 10 μM” value in the data set with AD38 cells worked out at 105%. Moreover, the activity at 10 µM in data set [1] (setting [2]) was determined as 16.1%.

Regarding `Cc1c[nH]c2cc(C(=O)NCc3cnc(C(F)(F)F)s3)ccc12` [Compound C14-01, 3-Methyl-N-((2-(trifluoromethyl)thiazol-5-yl)methyl)-1H-indole-6-carboxamide], the “AD38 Viability Normalized Result (CPAM/DMSO %) at 10 μM” value in the data set with AD38 cells was determined as 113%. Further, the activity at 10 µM in data set [1] (setting [2]) was found to be 63%.

For `N#Cc1ccc(-c2ncc(CNC(=O)c3ccc4c(CC5CCOCC5)c[nH]c4c3)s2)c(F)c1` [Compound C18-02, N-((2-(4-cyano-2-fluorophenyl)thiazol-5-yl)methyl)-3-((tetrahydro-2H-pyran-4-yl)methyl)-1H-indole-6-carboxamide], the “AD38 Viability Normalized Result (CPAM/DMSO %) at 10 μM” value in the data set on AD38 cells came out at 106%. Moreover, the activity at 10 µM in data set [1] (setting [2]) was found to be 62.9%.

As to `O=C(NCc1cnc(C(F)(F)F)s1)c1ccc2c(C3CCCCC3)c[nH]c2c1` [Compound C19-01, 3-Cyclohexyl-N-((2-(trifluoromethyl)thiazol-5-yl)methyl)-1H-indole-6-carboxamide], the “AD38 Viability Normalized Result (CPAM/DMSO %) at 10 μM” value in the data set with AD38 cells amounted to 79%. Further, the activity at 10 µM in data set [1] (setting [2]) turned out to be 30.8%.

Take `Cc1[nH]c2cc(C(=O)NCc3cnc(C(F)(F)F)s3)ccc2c1C1CCCCC1` [Compound C20-01, 3-Cyclohexyl-2-methyl-N-((2-(trifluoromethyl)thiazol-5-yl)methyl)-1H-indole-6-carboxamide]: the “AD38 Viability Normalized Result (CPAM/DMSO %) at 10 μM” value in the data set with AD38 cells was determined as 47%. In addition, the activity at 10 µM in data set [1] (setting [2]) is 45.9%.

Take `O=C1CC2CCCCN2c2ccc(C(=O)NCc3cnc(C(F)(F)F)s3)cc2N1` (stereo not shown) [Compound C21-01]: the “AD38 Viability Normalized Result (cmpd/DMSO %) at 10 μM” value with AD38 cells was determined as 39%. The activity at 10 µM in data set [1] (setting [3]) was found to be 45.9%.

Turning to `N#Cc1ccc(-c2ncc(CNC(=O)c3ccc4c(c3)NC(=O)CC3CCCCN43)s2)c(F)c1` (stereo not shown) [Compound C21-02], the “AD38 Viability Normalized Result (cmpd/DMSO %) at 10 μM” value in the data set on AD38 cells is 15%. In addition, in data set [1] (setting [3]), the activity at 10 µM stood at 48.9%.
